Test results: ChEMBL document CHEMBL1201862, “PubChem BioAssay data set” (2004)
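Five concentrations, 48 hours, 96-well plates. GI50: concentration for 50% inhibition of growth.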 Active and inactive are the calls of the source. Rule as the data show it: active = GI50 up to about 1.1 µM and inactive = higher.

How the values were obtained:
Experiment in all cases: inhibition of tumour cell growth, NCI panel, 48 h
Malme-3M = test system: Malme-3M
UO-31 = test system: UO-31
HCT-15 = test system: HCT-15
SK-MEL-2 = test system: SK-MEL-2
NCI-H23 = test system: NCI-H23
SNB-19 = test system: SNB-19
K562 = test system: K562
PC-3 = test system: PC-3
TK-10 = test system: TK-10
EKVX = test system: EKVX
T47D = test system: T47D
CAKI-1 = test system: CAKI-1
HCT-116 = test system: HCT-116
MDA-MB-231 = test system: MDA-MB-231
NCI-H460 = test system: NCI-H460
786-0 = test system: 786-0
SW-620 = test system: SW-620
OVCAR-8 = test system: OVCAR-8
HT-29 = test system: HT-29
SR = test system: SR

Compound	GI50 (Malme-3M)	GI50 (UO-31)	GI50 (HCT-15)	GI50 (SK-MEL-2)	GI50 (NCI-H23)	GI50 (SNB-19)	GI50 (K562)	GI50 (PC-3)	GI50 (TK-10)	GI50 (EKVX)	GI50 (T47D)	GI50 (CAKI-1)	GI50 (HCT-116)	GI50 (MDA-MB-231)	GI50 (NCI-H460)	GI50 (786-0)	GI50 (SW-620)	GI50 (OVCAR-8)	GI50 (HT-29)	GI50 (SR)
CC(=O)c1ccc(O)c(CN(C2CCCCC2)C2CCCCC2)c1O	> 100 µM (inactive)	83.2 µM (inactive)	> 100 µM	> 100 µM (inactive)	> 100 µM (inactive)	> 100 µM (inactive)	> 100 µM (inactive)	> 100 µM (inactive)	74.3 µM (inactive)	> 100 µM (inactive)	21.6 µM (inactive)	> 100 µM (inactive)	> 100 µM (inactive)	> 100 µM (inactive)	> 100 µM (inactive)	> 100 µM (inactive)	81.1 µM (inactive)	> 100 µM (inactive)	> 100 µM (inactive)	
NP1(Oc2ccc(F)cc2)=NP(N)(Oc2ccc(F)cc2)=NP(Oc2ccc(F)cc2)(Oc2ccc(F)cc2)=N1 (stereo not given)	5.27 µM (inactive)	4.06 µM (inactive)	3.81 µM		11.2 µM (inactive)	10.9 µM (inactive)		4.85 µM (inactive)	2.77 µM (inactive)	6.82 µM (inactive)	2.4 µM (inactive)	10.2 µM (inactive)	4.58 µM (inactive)	11.4 µM (inactive)	3.7 µM (inactive)	11 µM (inactive)	12.4 µM (inactive)	3.5 µM (inactive)	5.43 µM (inactive)	4.56 µM (inactive)
O=C1CSC2(CCN(CCCN3c4ccccc4Sc4ccc(Cl)cc43)CC2)N1	12 µM (inactive)	6.75 µM (inactive)	6.78 µM	16.2 µM (inactive)	9.46 µM (inactive)	12.1 µM (inactive)	3.79 µM (inactive)	5.37 µM (inactive)	9.4 µM (inactive)	9.31 µM (inactive)	3.57 µM (inactive)	12.5 µM (inactive)	6.14 µM (inactive)	7.06 µM (inactive)	4.08 µM (inactive)	11.2 µM (inactive)	11.2 µM (inactive)	11.3 µM (inactive)	3.53 µM (inactive)	
Cc1ccc(C2=Nc3c(c(C)nn3-c3ccccc3)N=C(C(=O)O)C2)cc1	> 10 µM (inactive)	> 10 µM (inactive)	> 10 µM	> 10 µM (inactive)	> 10 µM (inactive)	> 10 µM (inactive)	> 10 µM (inactive)	> 10 µM (inactive)	> 10 µM (inactive)	> 10 µM (inactive)	> 10 µM (inactive)	> 10 µM (inactive)	> 10 µM (inactive)	> 10 µM (inactive)	> 10 µM (inactive)	> 10 µM (inactive)	> 10 µM (inactive)	> 10 µM (inactive)	> 10 µM (inactive)	
ON=C(CC(O)(C(F)(F)Cl)C(F)(F)Cl)CC(O)(C(F)(F)Cl)C(F)(F)Cl	2.99 µM (inactive)	3.33 µM (inactive)	3.55 µM	3.03 µM (inactive)	2.56 µM (inactive)	4.25 µM (inactive)	> 10 µM (inactive)	3.33 µM (inactive)	7.66 µM (inactive)	5.04 µM (inactive)	3.37 µM (inactive)	5.46 µM (inactive)	3.29 µM (inactive)		4.1 µM (inactive)	5.21 µM (inactive)	> 10 µM (inactive)	6.9 µM (inactive)	9.14 µM (inactive)	4.58 µM (inactive)
CC(C)(/C=N/O)/[N+]([O-])=C/c1ccccc1	> 100 µM (inactive)	> 100 µM (inactive)	> 100 µM	> 100 µM (inactive)	> 100 µM (inactive)	> 100 µM (inactive)		> 100 µM (inactive)	> 100 µM (inactive)	> 100 µM (inactive)	> 100 µM (inactive)	> 100 µM (inactive)	> 100 µM (inactive)	> 100 µM (inactive)	> 100 µM (inactive)	> 100 µM (inactive)	> 100 µM (inactive)	> 100 µM (inactive)	> 100 µM (inactive)	
C(/C=N/N=C1NCCCN1)=N\N=C1NCCCN1	> 100 µM (inactive)	> 100 µM (inactive)			> 100 µM (inactive)	> 100 µM (inactive)	> 100 µM (inactive)	> 100 µM (inactive)	> 10 µM (inactive)	> 100 µM (inactive)	> 100 µM (inactive)	> 100 µM (inactive)	> 100 µM (inactive)	> 100 µM (inactive)	> 100 µM (inactive)	> 100 µM (inactive)	> 100 µM (inactive)	> 100 µM (inactive)	> 100 µM (inactive)	> 100 µM (inactive)
